From the supplement of paper PMC10307832

Columns and labels:
Assay in all cases: relative viability (nuclei count vs DMSO), 5 days (fraction); higher = more cells survive
[1] = compound: CO[C@H]1C[C@@H]2CC[C@@H](C)[C@@](O)(O2)C(=O)C(=O)N2CCCC[C@H]2C(=O)O[C@H]([C@H](C)C[C@@H]2CC[C@@H](OCCO)[C@H](OC)C2)CC(=O)[C@H](C)/C=C(\C)[C@@H](O)[C@@H](OC)C(=O)[C@H](C)C[C@H](C)/C=C/C=C/C=C/1C [Everolimus] + CC1(C)CCC(c2ccc(Cl)cc2)=C(CN2CCN(c3ccc(C(=O)NS(=O)(=O)c4ccc(N[C@H](CCN5CCOCC5)CSc5ccccc5)c(S(=O)(=O)C(F)(F)F)c4)cc3)CC2)C1 [Navitoclax] (partner 0.5 µM)
Method in brief: (§1)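 Cells from lung cancer lines were seeded into 1536-well plates and, one day later, dosed by pin tool. Treatments were either a single drug or a fixed dose of an anchor drug with five library-drug doses (not always all listed) in √10 steps. After 5 days, nuclei were stained in a one-step fixation (final 0.05% Triton X-100, 1% formaldehyde, 1 ug/ml Hoechst) and counted on 4× images, and relative viability is the treated-to-vehicle nuclei ratio, as the median of duplicate plates.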

[2] = compound: CO[C@H]1C[C@@H]2CC[C@@H](C)[C@@](O)(O2)C(=O)C(=O)N2CCCC[C@H]2C(=O)O[C@H]([C@H](C)C[C@@H]2CC[C@@H](OCCO)[C@H](OC)C2)CC(=O)[C@H](C)/C=C(\C)[C@@H](O)[C@@H](OC)C(=O)[C@H](C)C[C@H](C)/C=C/C=C/C=C/1C [Everolimus] + C[C@@H](Oc1cc(-c2cnn(C3CCNCC3)c2)cnc1N)c1c(Cl)ccc(F)c1Cl [Crizotinib] (partner 1 µM)
Method in brief: as §1

[3] = compound: CO[C@H]1C[C@@H]2CC[C@@H](C)[C@@](O)(O2)C(=O)C(=O)N2CCCC[C@H]2C(=O)O[C@H]([C@H](C)C[C@@H]2CC[C@@H](OCCO)[C@H](OC)C2)CC(=O)[C@H](C)/C=C(\C)[C@@H](O)[C@@H](OC)C(=O)[C@H](C)C[C@H](C)/C=C/C=C/C=C/1C [Everolimus] + Cc1cc(Nc2cc(N3CCN(C)CC3)nc(Sc3ccc(NC(=O)C4CC4)cc3)n2)n[nH]1 [Tozasertib] (partner 0.1 µM)
Method in brief: as §1

[4] = compound: CO[C@H]1C[C@@H]2CC[C@@H](C)[C@@](O)(O2)C(=O)C(=O)N2CCCC[C@H]2C(=O)O[C@H]([C@H](C)C[C@@H]2CC[C@@H](OCCO)[C@H](OC)C2)CC(=O)[C@H](C)/C=C(\C)[C@@H](O)[C@@H](OC)C(=O)[C@H](C)C[C@H](C)/C=C/C=C/C=C/1C [Everolimus] + O=C(CCCCCCC(=O)Nc1ccccc1)NO [Vorinostat] (partner 1 µM)
Method in brief: as §1

| Cell Line | relative viability ([1]; first compound 0.01 µM) | relative viability ([1]; first compound 0.03162 µM) | relative viability ([1]; first compound 0.1 µM) | relative viability ([1]; first compound 0.3162 µM) | relative viability ([1]; first compound 1 µM) | relative viability ([2]; first compound 0.01 µM) | relative viability ([2]; first compound 0.03162 µM) | relative viability ([2]; first compound 0.1 µM) | relative viability ([2]; first compound 0.3162 µM) | relative viability ([2]; first compound 1 µM) | relative viability ([3]; first compound 0.01 µM) | relative viability ([3]; first compound 0.03162 µM) | relative viability ([3]; first compound 0.1 µM) | relative viability ([3]; first compound 0.3162 µM) | relative viability ([3]; first compound 1 µM) | relative viability ([4]; first compound 0.01 µM) | relative viability ([4]; first compound 0.03162 µM) | relative viability ([4]; first compound 0.1 µM) | relative viability ([4]; first compound 0.3162 µM) | relative viability ([4]; first compound 1 µM) |
| --- | --- | --- | --- | --- | --- | --- | --- | --- | --- | --- | --- | --- | --- | --- | --- | --- | --- | --- | --- | --- |
| NCI-H2347 | 0.906 | 0.453 | 0.26 | 0.453 | 0.429 | 0.683 | 0.568 | 0.554 | 0.546 | 0.58 | 0.531 | 0.519 | 0.365 | 0.506 | 0.305 | 0.565 | 0.556 | 0.455 | 0.419 | 0.551 |
| LCLC-97TM1 | 0.417 | 0.388 | 0.255 | 0.217 | 0.239 | 0.406 | 0.28 | 0.485 | 0.291 | 0.216 | 0.189 | 0.216 | 0.181 | 0.196 | 0.171 | 0.62 | 0.616 | 0.688 | 0.659 | 0.379 |
| EMC-BAC-2 | 0.9 | 0.806 | 0.619 | 0.736 | 0.61 | 0.562 | 0.546 | 0.485 | 0.504 | 0.535 | 0.289 | 0.296 | 0.244 | 0.258 | 0.266 | 0.278 | 0.267 | 0.299 | – | 0.292 |
| NCI-H1975 | 1.01 | 0.794 | 0.802 | 0.798 | 0.606 | 0.924 | 0.774 | 0.921 | 0.876 | 0.783 | 0.658 | 0.62 | 0.528 | 0.64 | 0.466 | 0.599 | 0.587 | 0.608 | 0.565 | 0.542 |
| BEN | 0.0532 | 0.0623 | 0.063 | 0.0598 | 0.0645 | 0.573 | 0.391 | 0.311 | 0.387 | 0.328 | 0.462 | 0.452 | 0.491 | 0.415 | 0.354 | 0.401 | 0.337 | 0.368 | 0.353 | 0.391 |
